15 compounds from patent publication US8129427B2, “2-phenylethylamino derivatives as calcium and/or sodium channel modulators” (Newron Pharmaceuticals S.p.A., priority 2005, dated 2012) can be followed below.

One test has as its target T1, MAO-B (Rattus norvegicus, UniProt P19643).
T1 construct: from tissue; host or cells: rat brain crude mitochondrial fraction
T1 sequence (P19643 1-520): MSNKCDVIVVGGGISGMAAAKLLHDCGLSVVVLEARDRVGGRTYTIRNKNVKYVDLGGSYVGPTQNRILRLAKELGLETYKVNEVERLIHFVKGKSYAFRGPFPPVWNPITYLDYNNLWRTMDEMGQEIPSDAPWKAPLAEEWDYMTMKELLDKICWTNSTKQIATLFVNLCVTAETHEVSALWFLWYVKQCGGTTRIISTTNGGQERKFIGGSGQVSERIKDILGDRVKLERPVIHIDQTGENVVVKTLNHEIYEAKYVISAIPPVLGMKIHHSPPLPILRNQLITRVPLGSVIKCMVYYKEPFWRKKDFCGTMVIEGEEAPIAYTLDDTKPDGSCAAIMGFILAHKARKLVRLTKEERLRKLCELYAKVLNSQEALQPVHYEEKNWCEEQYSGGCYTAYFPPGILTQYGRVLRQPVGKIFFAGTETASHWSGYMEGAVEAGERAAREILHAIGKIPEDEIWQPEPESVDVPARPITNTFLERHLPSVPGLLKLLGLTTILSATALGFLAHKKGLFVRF
Kind of test: In vitro MAO-B enzyme activity radioenzymatic assay. The test is classed as biochemical. The note with it: 100 μM compound, rat brain crude mitochondrial fraction, 14C-PEA substrate. As for the experimental part: Male Wistar rats (Harlan, Italy—175-200 g) were sacrificed under light anaesthesia and brains were rapidly removed and homogenized in 8 volumes of ice-cold 0.32 M sucrose buffer containing 0.1 M EDTA, pH 7.4. The crude homogenate was centrifuged at 2220 rpm for 10 minutes and the supernatant recovered. The pellet was homogenized and centrifuged again. The two supernatants were pooled and centrifuged at 9250 rpm for 10 minutes at +4° C. The pellet was resuspended in fresh buffer and centrifuged at 11250 rpm for 10 minutes at +4° C. The resulting pellet was stored at −80° C.
The enzyme activities were assessed with a radioenzymatic assay using the substrates ^14C-serotonin (5-HT) and ^14C-phenylethylamine (PEA) for MAO-A and MAO-B, respectively.
The mitochondrial pellet (500 μg protein) was resuspended in 0.1 M phosphate buffer (pH 7.4). 500 μl of the suspension were added to a 50 μl solution of the test compound or buffer, and incubated for 30 min at 37° C. (preincubation) then the substrate (50 μl) was added. The incubation was carried out for 30 minutes at 37° C. (^14C-5-HT, 5 μM) or for 10 minutes at 37° C. (^14C-PEA, 0.5 μM).
The reaction was stopped by adding 0.2 ml of 37% HCl or perchloric acid. After centrifugation, the deaminated metabolites were extracted with 3 ml of diethyl ether (5-HT) or toluene (PEA) and the radioactive organic phase was measured by liquid scintillation spectrometry at 90% efficiency. The amount of neutral and/or acidic metabolites formed as a result of MAO activity was obtained by measuring the radioactivity of the eluate.
The activity of MAO in the sample, corresponding to a percentage of radioactivity compared with the control activity in the absence of the inhibitor, was expressed as nmoles of substrate transformed/mg protein/min.

A further test concerns the target N-type calcium channels (Homo sapiens, UniProt Q00975). Briefly: N-type calcium channel influx assay (fluorescence). It counts as cell-based.
In another test the test system is L-type calcium channels. It counts as cell-based, mouse. The note with it: AtT20/D16v-F2 cells, ω-conotoxin 1 μM, 100 mM KCl depolarization.
For another test, the system named is TTXs sodium channels. Briefly: TTXs-sodium channel influx assay (membrane potential fluorescence). The test is classed as cell-based, rat. As to conditions: ND7/23 cells, veratridine 100 μM. Here is the method: ND7/23 rat dorsal root ganglion-derived cell line endogenously expresses a mixed population of TTXs sodium channels (such as Nav1.3, Nav1.2, Nav1.1, Nav1.6). These cells lack of TTXr sodium channels as shown by the absence of their respective transcripts. ND7/23 cells were grown in DMEM supplemented with 10% FBS and 1 mM sodium piruvate.
The cells were seeded at 50,000 cells/well on 96 poly-L-lysine-coated plates and further incubated for 18-24 h before use.
The Membrane Potential Kit Assay (Molecular Devices), based on a negatively charged fluorescent dye able to monitor changes in membrane potential caused by the sodium influx due to the channel opening, was used for the assay.
Cells were incubated with the dye loading for 30 minutes at 25° C. Then, 100 nM of the toxin Anemonia sulcata (used as enhancer of the channel opener response) alone or in the presence of TTX (as reference standard) or test compound were added for further 15 minutes.
The fluorescence (excitation: 530 nm, emission: 565 nm wavelength) was measured before and after (40-45 s) the automated injection of the sodium channel opener veratridine (100 μM) using a Victor plate reader (Perkin Elmer).
The inhibition curves were calculated from 5 concentrations, each in triplicate, and the IC50 determined using a linear regression analysis.

Where [1] appears, read: differentiated IMR32 cells, nifedipine 1 μM, 100 mM KCl depolarization, read-out: IC50.

Where a name gives a salt, the structure may show the parent alone. Read-outs that look alike come from different tables or passages of the source.

Chain of N-type calcium channels (Q00975 whole entry): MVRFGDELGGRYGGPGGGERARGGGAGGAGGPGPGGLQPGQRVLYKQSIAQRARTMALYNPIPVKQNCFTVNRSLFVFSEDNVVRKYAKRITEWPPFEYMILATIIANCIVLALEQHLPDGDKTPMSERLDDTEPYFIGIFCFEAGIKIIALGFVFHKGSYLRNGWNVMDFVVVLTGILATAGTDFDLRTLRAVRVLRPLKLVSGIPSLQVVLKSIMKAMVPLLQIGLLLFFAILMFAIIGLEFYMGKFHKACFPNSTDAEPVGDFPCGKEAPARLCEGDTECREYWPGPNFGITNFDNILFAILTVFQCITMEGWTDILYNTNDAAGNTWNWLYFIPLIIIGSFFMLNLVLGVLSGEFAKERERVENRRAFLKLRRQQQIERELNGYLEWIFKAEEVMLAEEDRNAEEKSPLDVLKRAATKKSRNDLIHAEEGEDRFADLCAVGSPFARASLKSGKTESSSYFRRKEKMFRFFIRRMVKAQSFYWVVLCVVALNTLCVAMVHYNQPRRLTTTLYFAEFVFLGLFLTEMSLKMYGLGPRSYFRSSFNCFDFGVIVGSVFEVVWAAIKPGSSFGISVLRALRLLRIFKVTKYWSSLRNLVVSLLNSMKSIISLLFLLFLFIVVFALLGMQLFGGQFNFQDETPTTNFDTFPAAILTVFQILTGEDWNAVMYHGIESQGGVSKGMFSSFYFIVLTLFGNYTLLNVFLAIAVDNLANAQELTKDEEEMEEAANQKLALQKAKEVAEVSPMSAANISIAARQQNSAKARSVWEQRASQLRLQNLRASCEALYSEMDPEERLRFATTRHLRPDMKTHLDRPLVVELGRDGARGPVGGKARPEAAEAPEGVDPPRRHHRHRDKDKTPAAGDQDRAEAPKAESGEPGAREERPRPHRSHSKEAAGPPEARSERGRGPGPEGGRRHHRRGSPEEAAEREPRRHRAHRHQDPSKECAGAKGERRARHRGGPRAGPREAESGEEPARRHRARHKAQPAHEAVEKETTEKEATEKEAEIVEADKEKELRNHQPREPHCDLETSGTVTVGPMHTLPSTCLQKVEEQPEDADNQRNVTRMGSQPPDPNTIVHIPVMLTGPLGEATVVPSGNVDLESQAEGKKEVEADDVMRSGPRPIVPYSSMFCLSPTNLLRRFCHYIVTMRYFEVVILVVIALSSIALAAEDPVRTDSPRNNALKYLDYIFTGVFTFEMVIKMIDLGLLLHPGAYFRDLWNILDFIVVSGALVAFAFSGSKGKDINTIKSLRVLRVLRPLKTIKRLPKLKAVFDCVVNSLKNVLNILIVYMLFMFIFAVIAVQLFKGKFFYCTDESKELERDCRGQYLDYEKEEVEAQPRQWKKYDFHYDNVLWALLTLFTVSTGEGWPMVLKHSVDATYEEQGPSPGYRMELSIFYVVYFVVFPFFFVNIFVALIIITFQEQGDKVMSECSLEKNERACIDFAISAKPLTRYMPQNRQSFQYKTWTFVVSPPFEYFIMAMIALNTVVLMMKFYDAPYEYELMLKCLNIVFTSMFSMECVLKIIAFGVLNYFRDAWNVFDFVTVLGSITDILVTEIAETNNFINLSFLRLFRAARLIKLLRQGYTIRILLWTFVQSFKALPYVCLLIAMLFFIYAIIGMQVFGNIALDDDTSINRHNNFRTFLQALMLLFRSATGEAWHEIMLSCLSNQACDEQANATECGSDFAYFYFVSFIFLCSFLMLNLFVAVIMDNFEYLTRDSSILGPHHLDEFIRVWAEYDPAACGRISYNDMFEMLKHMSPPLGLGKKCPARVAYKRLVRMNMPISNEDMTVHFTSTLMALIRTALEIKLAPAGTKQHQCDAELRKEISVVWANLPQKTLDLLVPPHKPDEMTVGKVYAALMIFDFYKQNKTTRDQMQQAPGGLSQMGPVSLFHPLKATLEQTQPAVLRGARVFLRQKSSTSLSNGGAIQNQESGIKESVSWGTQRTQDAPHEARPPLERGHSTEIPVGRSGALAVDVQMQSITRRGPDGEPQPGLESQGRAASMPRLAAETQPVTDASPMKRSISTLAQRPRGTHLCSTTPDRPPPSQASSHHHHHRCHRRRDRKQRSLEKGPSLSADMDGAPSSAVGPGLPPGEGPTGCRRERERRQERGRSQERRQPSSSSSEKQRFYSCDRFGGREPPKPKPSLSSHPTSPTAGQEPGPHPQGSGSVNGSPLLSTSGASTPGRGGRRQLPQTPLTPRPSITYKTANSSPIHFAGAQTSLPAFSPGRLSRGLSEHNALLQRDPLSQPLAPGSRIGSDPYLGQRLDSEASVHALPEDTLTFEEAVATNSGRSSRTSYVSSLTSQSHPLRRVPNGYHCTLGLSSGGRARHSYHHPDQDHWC
Chain of N-type calcium channels (Q02641 whole entry partner): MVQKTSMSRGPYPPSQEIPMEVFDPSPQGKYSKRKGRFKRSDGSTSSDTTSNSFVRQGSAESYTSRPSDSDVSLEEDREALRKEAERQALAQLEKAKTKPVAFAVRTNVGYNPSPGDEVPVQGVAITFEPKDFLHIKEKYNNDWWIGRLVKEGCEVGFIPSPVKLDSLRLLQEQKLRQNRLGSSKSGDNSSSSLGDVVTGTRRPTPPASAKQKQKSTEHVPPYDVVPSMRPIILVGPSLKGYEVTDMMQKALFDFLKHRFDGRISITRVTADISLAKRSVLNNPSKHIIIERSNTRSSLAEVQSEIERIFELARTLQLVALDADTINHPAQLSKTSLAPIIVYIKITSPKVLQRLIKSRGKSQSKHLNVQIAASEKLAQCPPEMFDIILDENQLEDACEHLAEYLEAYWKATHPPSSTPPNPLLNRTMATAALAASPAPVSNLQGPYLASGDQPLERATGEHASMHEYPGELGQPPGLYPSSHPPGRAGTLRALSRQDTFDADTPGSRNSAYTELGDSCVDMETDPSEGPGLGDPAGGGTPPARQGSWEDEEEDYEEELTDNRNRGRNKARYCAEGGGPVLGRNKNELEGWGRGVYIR
Chain of N-type calcium channels (P54289 25-956 partner limits assumed): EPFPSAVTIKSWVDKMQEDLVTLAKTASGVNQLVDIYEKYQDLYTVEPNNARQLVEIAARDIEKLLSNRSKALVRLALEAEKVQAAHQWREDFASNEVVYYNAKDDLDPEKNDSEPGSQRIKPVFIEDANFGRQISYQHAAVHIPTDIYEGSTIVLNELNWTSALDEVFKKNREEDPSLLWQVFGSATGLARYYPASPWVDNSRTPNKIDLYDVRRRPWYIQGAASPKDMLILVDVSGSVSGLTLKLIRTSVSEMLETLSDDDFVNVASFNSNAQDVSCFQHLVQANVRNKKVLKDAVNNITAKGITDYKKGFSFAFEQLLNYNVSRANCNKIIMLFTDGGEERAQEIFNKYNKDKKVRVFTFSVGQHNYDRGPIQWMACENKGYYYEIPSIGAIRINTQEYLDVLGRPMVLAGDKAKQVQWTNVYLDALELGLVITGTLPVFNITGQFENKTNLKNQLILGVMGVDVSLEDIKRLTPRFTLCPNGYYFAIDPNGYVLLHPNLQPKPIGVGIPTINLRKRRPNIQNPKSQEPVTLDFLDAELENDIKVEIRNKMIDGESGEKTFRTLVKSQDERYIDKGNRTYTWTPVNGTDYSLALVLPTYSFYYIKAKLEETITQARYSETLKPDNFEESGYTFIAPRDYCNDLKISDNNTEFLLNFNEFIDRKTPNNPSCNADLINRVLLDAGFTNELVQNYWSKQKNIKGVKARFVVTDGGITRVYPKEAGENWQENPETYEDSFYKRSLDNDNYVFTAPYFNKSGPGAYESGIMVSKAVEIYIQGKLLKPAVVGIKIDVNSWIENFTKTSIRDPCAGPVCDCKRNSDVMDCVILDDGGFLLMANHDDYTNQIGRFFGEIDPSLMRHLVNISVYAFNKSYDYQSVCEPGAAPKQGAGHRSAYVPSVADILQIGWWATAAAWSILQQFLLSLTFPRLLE
Chain of N-type calcium channels (P54289 957-1103 partner limits assumed): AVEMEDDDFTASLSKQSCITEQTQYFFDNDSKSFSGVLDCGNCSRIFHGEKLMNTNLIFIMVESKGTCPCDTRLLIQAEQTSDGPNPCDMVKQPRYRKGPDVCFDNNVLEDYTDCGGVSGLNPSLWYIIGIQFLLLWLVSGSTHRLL

By inhibition is commonly meant how much of the control response was suppressed. Low readings indicate a response near the control, high ones a response far below the control. A word on the IC50: it is the concentration that inhibits the measured activity by half. `CNC(=O)CN(CCc1ccc(OCc2cccc(F)c2)c(OC)c1)CC(C)C` [Example 2, 2-[[2-[4-(3-Fluoro-benzyloxy)-3-methoxy-phenyl]-ethyl]-isobutylamino]-N-methyl-acetamide hydrochloride]: on MAO-B, 100 µM produced 53% inhibition. Besides, the IC50 on N-type calcium channels (setting [1]) came to 4800 nM; in the test on L-type calcium channels, 3100 nM.

Consider `CNC(=O)CN(CCc1ccc(OCc2cccc(F)c2)c(OC)c1)Cc1ccoc1` [Example 10, 2-[[2-[4-(3-Fluoro-benzyloxy)-3-methoxy-phenyl]-ethyl]-(furan-3-ylmethyl)amino]-N-methyl-acetamide hydrochloride], for which the IC50 in the test on L-type calcium channels came out at 1700 nM.

In turn, `CNC(=O)CN(CCc1ccc(OCc2cccc(F)c2)c(OC)c1)Cc1ccc(OC)nc1` [Example 14, 2-[[2-[4-(3-Fluoro-benzyloxy)-3-methoxy-phenyl]-ethyl]-(6-methoxy-pyridin-3-ylmethyl)amino]-N-methyl-acetamide] had an IC50 in the test with TTXs sodium channels of 2900 nM.

`COc1cc(CCN(CC(=O)N(C)C)Cc2ccccc2)ccc1OCc1cccc(F)c1` [Example 20, 2-[[2-[4-(3-Fluoro-benzyloxy)-3-methoxy-phenyl]-ethyl]-benzylamino]-N,N-dimethyl-acetamide hydrochloride] yielded an inhibition at 100 µM against MAO-B of 3%. Moreover, the IC50 was 1100 nM at N-type calcium channels and 4600 nM in the test on L-type calcium channels.

With `CNC(=O)[C@H](CC(C)C)NCCc1ccc(OCc2cccc(F)c2)c(OC)c1` [Example 31, (S)-2-[2-[4-(3-Fluoro-benzyloxy)-3-methoxy-phenyl]-ethylamino]-N-methyl-4-methyl-valeramide], in the test with L-type calcium channels, the IC50 turned out to be 1000 nM.

With `COc1cc(CCNC(C(=O)N(C)C)c2ccccc2)ccc1OCc1cccc(F)c1` (stereo not drawn) [Example 32, 2-[2-[4-(3-Fluoro-benzyloxy)-3-methoxy-phenyl]-ethylamino]-2-phenyl-N,N-dimethyl-acetamide hydrochloride], testing at 100 µM on MAO-B gave an inhibition of 0%.

For `COc1cc(CCNC(C(=O)N2CCOCC2)c2ccccc2)ccc1OCc1cccc(F)c1` (stereo not drawn) [Example 33, 2-[2-[4-(3-Fluoro-benzyloxy)-3-methoxy-phenyl]-ethylamino]-1-(morpholin-4-yl)-2-phenyl-ethanone hydrochloride], the inhibition at 100 µM against MAO-B is 0%. Besides, the results for the IC50 at N-type calcium channels (setting [1]), in the test with L-type calcium channels and in the test on TTXs sodium channels were 6000 nM, 7100 nM and 2100 nM, respectively.

At MAO-B, `CCNC(=O)CN(CCc1ccc(OCc2cccc(F)c2)c(OC)c1)Cc1ccccc1` [Example 37, 2-[[2-[4-(3-Fluoro-benzyloxy)-3-methoxy-phenyl]-ethyl]-benzylamino]-N-ethyl-acetamide hydrochloride] came in with an inhibition at 100 µM of 4%. In addition, in the test with TTXs sodium channels, the IC50 is 1200 nM.

`COc1cc(CCN(CC(=O)N2CCCC2)Cc2ccccc2)ccc1OCc1cccc(F)c1` [Example 40, 2-[[2-[4-(3-Fluoro-benzyloxy)-3-methoxy-phenyl]-ethyl]-benzylamino]-1-(pyrrolidin-1-yl)-ethanone hydrochloride] showed an inhibition at 100 µM against MAO-B of 11%. In addition, the IC50 on N-type calcium channels (setting [1]) was determined as 2200 nM; with L-type calcium channels, 1600 nM.

`COc1cc(CCN(CC(=O)NCC(C)(C)N)Cc2ccccc2)ccc1OCc1cccc(F)c1` [Example 42, 2-[[2-[4-(3-Fluoro-benzyloxy)-3-methoxy-phenyl]-ethyl]-benzylamino]-N-(2-amino-2-methyl-propyl)-acetamide hydrochloride] showed an inhibition at 100 µM against MAO-B of 32%. Besides, the results for the IC50 at N-type calcium channels (setting [1]) and in the test with L-type calcium channels were 2600 nM and 2400 nM, respectively.

The compound `COc1cc(CCN(CC(=O)NCCN(C)C)Cc2ccccc2)ccc1OCc1cccc(F)c1` [Example 43, 2-[[2-[4-(3-Fluoro-benzyloxy)-3-methoxy-phenyl]-ethyl]-benzylamino]-N-(2-dimethylamino-ethyl)-acetamide hydrochloride] had an inhibition at 100 µM at MAO-B of 33%. In addition, the IC50 worked out at 1900 nM on N-type calcium channels (setting [1]) and 1200 nM with L-type calcium channels.

On MAO-B, `COc1cc(CCN(CC(=O)NCCC2CCCN2C)Cc2ccccc2)ccc1OCc1cccc(F)c1` (stereo not drawn) [Example 44, 2-[[2-[4-(3-Fluoro-benzyloxy)-3-methoxy-phenyl]-ethyl]-benzylamino]-N-[2-(1-methyl-pyrrolidin-2-yl)-ethyl]-acetamide hydrochloride] had an inhibition at 100 µM of 39%.

For the compound `CCNC(=O)CN(CCc1ccc(OCc2cccc(F)c2)c(OC)c1)CC1CC1` [Example 47, 2-[[2-[4-(3-Fluoro-benzyloxy)-3-methoxy-phenyl]-ethyl]-(cyclopropylmethyl)amino]-N-ethyl-acetamide hydrochloride], the IC50 in the test on L-type calcium channels is 1800 nM.

Turning to `CN(C)CCNC(=O)CN(CCc1cccc(OCc2cccc(F)c2)c1)Cc1ccco1` [Example 71, 2-[[2-[3-(3-Fluoro-benzyloxy)-phenyl]-ethyl]-(furan-2-ylmethyl)amino]-N-(2-dimethylamino-ethyl)-acetamide dihydrochloride], on MAO-B, 100 µM produced 34% inhibition. Moreover, the IC50 at N-type calcium channels (setting [1]) is 1900 nM; in the test with L-type calcium channels it was 3400 nM.

As for `CC(C)(N)CNC(=O)CN(CCc1cccc(OCc2cccc(F)c2)c1)Cc1ccco1` [Example 72, 2-[[2-[3-(3-Fluoro-benzyloxy)-phenyl]-ethyl]-(furan-2-ylmethy ° amino]-N-(2-amino-2-methyl-propyl)-acetamidedihydrochloride], testing at 100 µM against MAO-B gave an inhibition of 31%. For the same compound, the IC50 came out at 2600 nM on N-type calcium channels (setting [1]) and 2900 nM with L-type calcium channels.
